From US6495699B2, “Metalloproteinase inhibitors, pharmaceutical compositions containing them, and their use” (Agouron Pharmaceuticals Inc., priority 1996, dated 2002) come the findings set out here.

The target in data set [1] is T1, catalytic domain of human stromelysin (Hsln) (Homo sapiens, UniProt P08254).
T1 construct: The catalytic domain of human stromelysin (Hsln) was obtained by expression and purification of a C-terminally truncated prostromelysin-1; made in house; host or cells: E. coli BL21
As to the kind of experiment: Fluorometric MCA-peptide hydrolysis assay, stromelysin (Hsln). It is filed as biochemical. Conditions: apparent Ki; 10 μM MCA peptide substrate, 37° C., pH 7.5; read-out: Hsln (Ki,app). In outline: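 APMA-activated E. coli–expressed catalytic domain, with 10 μM MCA-Pro-Leu-Gly-Leu-DPA-Ala-Arg-NH2 at 37 °C. Buffer was pH 7.5 Tricine with NaCl, CaCl2, zinc acetate and 2% final DMSO; fluorescence read at ex 328/em 393 nm over 60 min. Ki,app from steady-state rates fitted to competitive or Morrison tight-binding equations.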

The next data set concerns the target T2, Human matrilysin (Matr) (Homo sapiens, UniProt P09237).
T2 construct: the catalytic domain was liberated by treatment with 2 mM APMA at 37° C. for 2 hours; ubiquitin (cleaved yes); made in house; host or cells: E. coli
T2 sequence (P09237 95-267): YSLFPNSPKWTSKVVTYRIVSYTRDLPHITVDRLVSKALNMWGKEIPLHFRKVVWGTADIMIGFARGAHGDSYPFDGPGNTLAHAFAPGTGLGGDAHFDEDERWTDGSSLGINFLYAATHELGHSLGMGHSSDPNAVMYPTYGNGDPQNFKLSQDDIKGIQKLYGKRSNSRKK
As to the kind of experiment: Fluorometric MCA-peptide hydrolysis assay, matrilysin (Matr). Format: biochemical. Conditions: apparent Ki; 10 μM MCA peptide substrate, 37° C., pH 7.5; read-out: Matr (Ki,app). In a few lines:
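Catalytic domain of E. coli-expressed human matrilysin assayed at 37° C, pH 7.5 Tricine buffer, 2% DMSO, with 10 μM MCA-Pro-Leu-Gly-Leu-DPA-Ala-Arg-NH2; fluorescence ex 328/em 393 nm over 60 min. Ki,app from steady-state rates fitted to competitive inhibition or Morrison tight-binding equation.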

The target of data set [2] is T3, fibroblast collagenase-1 catalytic domain (HFC) (Homo sapiens, UniProt P03956).
T3 construct: The catalytic domain of human collagenase-1 was expressed as a fusion protein with ubiquitin in E. coli; ubiquitin (cleaved yes); made in house; host or cells: E. coli
T3 sequence (P03956 100-269 limits assumed): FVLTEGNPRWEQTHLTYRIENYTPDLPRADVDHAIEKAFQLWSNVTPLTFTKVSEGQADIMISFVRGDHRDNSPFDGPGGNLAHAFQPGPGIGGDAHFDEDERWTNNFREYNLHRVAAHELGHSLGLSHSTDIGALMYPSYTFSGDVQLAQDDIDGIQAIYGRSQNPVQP
As to the kind of experiment: Fluorometric MCA-peptide hydrolysis assay, fibroblast collagenase-1 (HFC). It is filed as biochemical. Particulars: apparent Ki; 10 μM MCA peptide substrate, 37° C., pH 7.5; read-out: HFC (Ki,app). On the procedure: The catalytic domain of human collagenase-1 was expressed as a fusion protein with ubiquitin in E. coli (see Gehring, E. R., J Biol. Chem., 1995, 270, 22507). After purification of the fusion protein, the fibroblast collagenase-1 catalytic domain (HFC) was released either by treatment with purified, active stromelysin-1 (1:50 w/w ratio), which generated nearly 100% N-terminal Phe1, or by autoprocessing the concentrated collagenase-1 fusion and then incubating at 37° C. for 1 hour. Final purification was completed using zinc chelate chromatography.
Assays were performed in assay buffer (50 mM Tricine pH 7.5, 200 mM sodium chloride, 10 mM calcium chloride, 0.5 mM zinc acetate containing 2% dimethyl sulfoxide (DMSO)) once the substrate and inhibitor were diluted into it. Stock solutions of inhibitors were prepared in 100% DMSO. Stock solutions of the substrate were prepared in 100% DMSO at a concentration of 6 mM.
The assay method was based on the hydrolysis of MCA-Pro-Leu-Gly-Leu-DPA-Ala-Arg-NH2 (American Peptide Co.) at 37° C. (see Knight, C. G. et al., FEBS, 1992, 296, 263-266). The fluorescence changes were monitored with a Perkin-Elmer LS-50B fluorimeter using an excitation wavelength of 328 nm and an emission wavelength of 393 nm. The substrate concentration used in the assays was 10 μM. The inhibitor was diluted into the assays from a solution in 100% DMSO, and controls substituted an equal volume of DMSO so that the final DMSO concentration from inhibitor and substrate dilution in all assays was 2%. […] Proper determination of steady-state rates of substrate cleavage required assay lengths of 60 minutes to allow for complete equilibration of the enzyme-inhibitor complex.
The Km for the MCA peptide substrate with the matrix metalloproteinases is quite high and exceeds its solubility under assay conditions. Consequently, the apparent Ki (Ki,app) was determined to describe the strength of inhibition. However, in this case, Ki,app would be essentially equal to Ki since [S]<<Km. For the determination of Ki,app, the concentration of the inhibitor was varied at a constant and low concentration of substrate and the steady-state rates of fluorescence change determined. In most cases absorptive quench due to the presence of ligand was not observed. For slow-binding inhibitors, onset of inhibition curves were collected for at least 45 minutes so that equilibrium was established. Steady-state rates of fluorescence change were obtained by fitting a curve to an equation for a single exponential decay containing a linear phase. The fitted value of the linear phase was taken as the steady-state rate. The steady-state rates were fitted to the Michaelis equation describing competitive inhibition by non-linear methods. Data resulting from tight-binding inhibition was analyzed, and Ki,app determined by fitting the data to the tight-binding equation of Morrison (Biochem. Biophys. Acta, vol. 185, pp. 269-286 (1969)) by non-linear methods.

The target of data set [3] is T4, human progelatinase A (GelA), catalytic and fibronectin-like portion (Homo sapiens, UniProt P08253).
T4 construct: The catalytic and fibronectin-like portion of human progelatinase A (GelA) was expressed as a fusion protein with ubiquitin; ubiquitin; made in house; host or cells: E. coli
Description: Fluorometric MCA-peptide hydrolysis assay, gelatinase A (GelA). It is filed as biochemical. Conditions: apparent Ki; 10 μM MCA peptide substrate, 37° C., pH 7.5. In a few lines:
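E. coli-expressed ubiquitin fusion of human proGelA catalytic plus fibronectin-like domains, autoactivated; 10 μM MCA-Pro-Leu-Gly-Leu-DPA-Ala-Arg-NH2, pH 7.5 Tricine/NaCl/CaCl2/Zn buffer, 2% DMSO, 37° C, 60 min. Fluorescence 328/393 nm; steady-state rates fitted to competitive inhibition or Morrison tight-binding equation giving Ki,app (≈Ki since [S]<<Km).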

The target of data set [4] is T5, human collagenase-3 (Coll3) (Homo sapiens, UniProt P45452).
T5 construct: the catalytic domain was liberated by treatment with 2 mM APMA at room temperature overnight; ubiquitin (N, cleaved yes); made in house; host or cells: E. coli
As to the kind of experiment: Fluorometric MCA-peptide hydrolysis assay, collagenase-3 (Coll3). Format: biochemical. Particulars: apparent Ki; 10 μM MCA peptide substrate, 37° C., pH 7.5; read-out: Coll3 (Ki,app).

A short description of data set [5]: Determination of inhibitor concentration in plasma after oral dosing. Format: in vivo, Sprague Dawley rats. Particulars: Sprague-Dawley, rat plasma, dose 25 mg/kg, vehicle C (2.8 mg/mL sodium bicarbonate in 60% aqueous propylene glycol). On the procedure: The dosing solution consisted of the inhibitor dissolved in either a molar equivalent of HCl in water (vehicle A), in 60% aq. propylene glycol (vehicle B), or in 2.8 mg/mL sodium bicarbonate in 60% aqueous propylene glycol (vehicle C), yielding a final concentration that ranged from 10-15 mg/ml. Sprague Dawley rats (Hilltop Lab Animals, Scottsdale, Pa.) were dosed as a function of drug weight per body weight, usually 50 mgper kg. Blood was taken from the rats and centrifuged, and the plasma was stored in the freezer. Drug was extracted from a 50 μl plasma aliquot by adding 1 ml of acetonitrile, shaking for 2 minutes, centrifuging for 15 minutes at 4000 rpm, collecting the supernatant, and then evaporating it to dryness under a stream of nitrogen. The samples were reconstituted with 130 μl of mobile phase, shook for 2 minutes, and centrifuged for 15 minutes at 4000 rpm. The supernatant was collected and the samples were analyzed by injecting 100 μl of supernatant onto HPLC.
Quantitation of drug levels was accomplished by generating a standard curve of known drug amounts that were extracted from added plasma. Drug levels were plotted as a function of time and analyzed to provide area under the curve (AUC) and maximum concentration (Cmax) values.

T4 sequence (P08253 110-465 limits assumed): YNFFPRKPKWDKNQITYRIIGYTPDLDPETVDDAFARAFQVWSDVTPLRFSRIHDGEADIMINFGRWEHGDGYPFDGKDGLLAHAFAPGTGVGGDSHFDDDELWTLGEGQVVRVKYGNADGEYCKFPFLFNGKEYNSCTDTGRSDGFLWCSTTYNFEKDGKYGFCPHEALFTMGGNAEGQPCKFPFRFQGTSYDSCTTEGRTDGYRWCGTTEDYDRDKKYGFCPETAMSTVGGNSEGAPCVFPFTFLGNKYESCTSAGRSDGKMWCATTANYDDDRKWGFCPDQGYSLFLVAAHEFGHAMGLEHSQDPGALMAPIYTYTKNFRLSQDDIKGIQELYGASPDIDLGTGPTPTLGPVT
T1 sequence (P08254 100-272 limits assumed): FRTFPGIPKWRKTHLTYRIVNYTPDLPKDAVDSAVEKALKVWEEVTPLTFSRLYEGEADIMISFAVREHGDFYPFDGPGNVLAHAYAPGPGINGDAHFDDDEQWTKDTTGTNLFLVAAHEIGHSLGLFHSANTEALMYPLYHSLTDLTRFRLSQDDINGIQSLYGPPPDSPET

In general, melting point refers to the temperature, or range, at which the solid turns liquid. The compound `O=C(O)C[C@H](C(=O)N[C@H](CO)Cc1ccccc1)c1ccn(-c2ccc(-c3ccccc3)cc2)c1` [Example 13] displayed a melting point of 151 to 154 °C. For the same compound, the Ki in data set [1] came out at 35 nM. Also, at Human matrilysin (Matr), the Ki amounted to 16900 nM. Moreover, in data set [2], the Ki came out at 72000 nM. Besides, the GelA (Ki,app) in data set [3] is 1.7 nM. In addition, in data set [4], the Ki amounted to 21 nM.
Turning to `CNC(=O)[C@@H](NC(=O)[C@@H](CC(=O)O)n1ccc(-c2ccncc2)c1)C(C)(C)C` [Example 1(d), N-[2,2-Dimethyl-1(S)-(methylcarbamoyl)propyl]-3(R)-[3-(pyridin-4-yl)-1H-pyrrol-1-yl]succinamic Acid], the melting point fell in the range of 145 to 148 °C. For the same compound, the Ki in data set [1] came out at 1220 nM. For the same compound, the Ki in data set [2] was determined as 4500 nM. Further, in data set [3], the GelA (Ki,app) was determined as 3.9 nM. In data set [4], the Ki came to 24 nM.
Take `CC(C)(C)[C@@H](CO)NC(=O)[C@H](CC(=O)NO)n1cnc(-c2ccc(-c3ccccc3)cc2)c1` [Example 19(d), 3(S)-(3-Biphenyl-4-yl-1H-imidazol-1-yl)-N^4-(2,2-dimethyl-1(S)-hydroxymethylpropyl)-N^1-hydroxy-succindiamide]: the melting point fell in the range of 134.5 to 136.5 °C. The Ki in data set [1] was 120 nM. For the same compound, the Ki in data set [2] is over 100000 nM. Further, the Ki in data set [4] was determined as 43 nM.
Regarding `O=C(O)C[C@H](C(=O)N[C@H]1Cc2cn(c3ccccc23)CCCCCCNC1=O)n1cccc1` [Example 1(o), N-(9-oxo-1,8-Diaza-tricyclo[10.6.1.0^13,18]nonadeca-12(19), 13,15,17-tetraen-10S-yl)-3(R)-1H-pyrrol-1-yl-succinamic Acid], the melting point lay in the range of 139 to 144 °C. Besides, the Ki in data set [1] was over 10000 nM. In addition, the Ki at Human matrilysin (Matr) was 15000 nM. In data set [2], the Ki was 51500 nM.
`CCOC(=O)c1ccc(NC(=O)[C@H](CC(C)C)NC(=O)[C@@H](CC(=O)O)n2cccc2)cc1` [Example 1(n), 4-[2S-(3-Carboxy-2(R)-1H-pyrrol-1-yl-propionylamido)-4-methyl-pentanoylamino]benzoic Acid Ethyl Ester] gave a melting point of 111 to 114 °C. For the same compound, the Ki in data set [1] was found to be 2000 nM. Besides, on Human matrilysin (Matr), the Ki is over 10000 nM. In addition, the Ki in data set [2] was found to be 1900 nM. Moreover, the Ki in data set [4] came out at 8500 nM.
Broadly, the AUC is concentration integrated over time. Read a low AUC as low exposure. By Cmax is commonly meant the highest concentration seen after dosing. Regarding `CC1(C)COC(=O)[C@H]1NC(=O)[C@@H](CC(=O)O)c1ccn(-c2ccc(-c3ccc(C#N)cc3)cc2)c1` [Example 14(d), 3(S)-[1-(4′-Cyanobiphenyl-4-yl)-1H-pyrrol-3-yl]-N-(4,4-dimethyl-2-oxo-tetrahydrofuran-3(S)-yl)succinamic Acid], the Ki in data set [1] stood at 19 nM. For the same compound, the GelA (Ki,app) in data set [3] was 0.9 nM. In data set [5], the AUC is 5820 ng·h/mL and the Cmax amounted to 1370 ng/mL.
With `COC(=O)c1ccc(NC(=O)[C@H](CC(C)C)NC(=O)[C@@H](CC(=O)O)c2cccs2)cc1` [Example 17(a), 4-[2(S)-(2(R)-Carboxymethyl-2-(thien-2-yl)acetylamino]-4-methyl-valeroyl]-aminobenzoic Acid Methyl Ester], the melting point lay within 197 to 200 °C. In addition, the Ki in data set [1] came to 965 nM. For the same compound, at Human matrilysin (Matr), the Ki was 454 nM. The Ki in data set [2] was found to be 32000 nM.
Consider `O=C(O)C[C@H](C(=O)N[C@H]1Cc2cn(c3ccccc23)CCOCCNC1=O)n1ccc(-c2ccc(-c3ccncc3)cc2)c1` [Example 7(a), N-(8-Oxo-4-oxa-1,7-diazatricyclo[9.6.1.0^12,17]octadeca-11(18),12,14,16-tetraen-9(S)-yl)-3(R)-[3-[4-(pyridin-4-yl)phenyl]-1H-pyrrol-1-yl]succinamic Acid], for which the melting point was > 172 °C (dec.). For the same compound, in data set [1], the Ki worked out at 2 nM. For the same compound, the Ki on Human matrilysin (Matr) came to 640 nM. Besides, the Ki in data set [2] was 333 nM. The GelA (Ki,app) in data set [3] came out at 0.015 nM. The Ki in data set [4] stood at 0.013 nM.
`CC(C)(C)[C@@H](CO)NC(=O)[C@@H](CC(=O)NO)n1cnc(-c2ccc(-c3ccccc3)cc2)c1` [Example 19(c), 3(R)-(3-Biphenyl-4-yl-1H-imidazol-1-yl)-N^4-(2,2-dimethyl-1(S)-hydroxymethylpropyl)-N^1-hydroxy-succindiamide]: the melting point lay within 157.5 to 160 °C. Moreover, in data set [1], the Ki amounted to 17 nM. In addition, in data set [2], the Ki was 45000 nM. In addition, the Ki in data set [4] was 6.5 nM.
In turn, `COC(=O)c1ccc(NC(=O)[C@H](CC(C)C)NC(=O)[C@@H](CC(=O)O)c2ccsc2)cc1` [Example 17(b), 4-[2(S)-[2(R)-Carboxymethyl-2-(thien-3-yl)acetylamino]-4-methyl-valeroyl]-aminobenzoic Acid Methyl Ester] gave a melting point of 199 to 201 °C. Besides, the Ki in data set [1] stood at 720 nM. For the same compound, the Ki at Human matrilysin (Matr) was found to be 309 nM. In data set [2], the Ki amounted to 20000 nM.
